According to patent publication US20150283051A1, “DERIVATIVE OF NOVEL POLYHYDROXY AROMATIC COMPOUND AND USE THEREOF” (RNS CO.,LTD., priority 2012, published 2015):

Assays:
[1] = system: B-16 mouse melanoma cells; assay: Measurement of melanin generation inhibitory effects in cultured melanoma cells; assay type: cell-based; conditions: for inhibition at 20 µg/mL: concentration 20 μg/ml
[2] = system: B-16 mouse melanoma cells; conditions: 1 μg/ml or more
Description: Then, these cells were treated using trypsin, separated from a culture vessel and centrifuged, then, melanin was extracted from the cells. Melanin was dissolved by adding 1 ml of 1N sodium hydroxide solution to the extract and subjected to measurement of absorbance at 475 nm, and an amount of the generated melanin was expressed by an absorbance per unit number of cells (10^6 cells) (this procedure was repeated three times).

[3] = Mus musculus, 72 h, concentration 5 μg/ml, cultured 3 days, relative to control, read-out: Inhibition rate (melanin generation)
[4] = Mus musculus, 72 h, cultured 3 days, relative to control, read-out: Inhibition rate (melanin generation)

| SMILES | inhibition at 5 µg/mL [1, 3] | inhibition at 20 µg/mL [1, 4] | inhibition at 1 µg/mL ([1]; Mus musculus, 72 h, concentration 1 μg/ml, cultured 3 days, relative to control, read-out: Inhibition rate (melanin generation)) | Inhibition rate (melanin generation) ([1]; concentration 5 μg/ml, cultured 3 days, relative to control) | Melanin generation inhibitory effects (in words) ([1]; cultured mouse melanoma cells, comparison with hydroquinone) | Cytotoxicity [2] |
| --- | --- | --- | --- | --- | --- | --- |
| CCCCC(CC)C(=O)Oc1ccnc(OC(=O)C(CC)CCCC)c1 (stereo not drawn) [Material in Example 9, 2,4-bis-(2-ethylhexanoyloxy)-pyridine] | 41% | 67% |  |  |  |  |
| CCCCC(CC)C(=O)Oc1cc(OC(=O)C(CC)CCCC)c2c(c1)OC(c1ccc(OC(=O)C(CC)CCCC)c(OC(=O)C(CC)CCCC)c1)C(OC(=O)C(CC)CCCC)C2 (stereo not drawn) [Material in Example 19, 3,3′,4′,5,7-pentakis-(2-ethylhexanoyloxy)-flavane] | 39% | 69% |  |  |  |  |
| CCCCCCCC(=O)Oc1cccc(OC(=O)CCCCCCC)c1 [Material in Example 4, 1,3-bis-octanoyloxy-benzene] | 41% | 71% |  |  |  |  |
| CCCCC(CC)C(=O)Oc1cc2oc(-c3ccccc3)cc(=O)c2c(OC(=O)C(CC)CCCC)c1OC(=O)C(CC)CCCC (stereo not drawn) [Material in Example 15, 5,6,7-tris-(2-ethylhexanoyloxy)-flavone] | 39% | 72% |  |  |  |  |
| CCCCC(CC)C(=O)Oc1cc(C=Cc2ccc(OC(=O)C(CC)CCCC)c(OC(=O)C(CC)CCCC)c2)cc(OC(=O)C(CC)CCCC)c1 (stereo not drawn) [Material in Example 18, 3,4,3′,5′-tetrakis-(2-ethylhexanoyloxy)-stilbene] | 47% | 72% |  |  |  |  |
| CCCCC(CC)C(=O)Oc1ccc(-c2cc(=O)c3c(OC(=O)C(CC)CCCC)cc(OC(=O)C(CC)CCCC)cc3o2)cc1 (stereo not drawn) [Material in Example 14, 5,7,4′-tris-(2-ethylhexanoyloxy)-flavone] | 31% | 57% |  |  |  |  |
| CCCCC(CC)C(=O)Oc1ccc(C2CC(=O)c3c(OC(=O)C(CC)CCCC)cc(OC(=O)C(CC)CCCC)cc3O2)cc1 (stereo not drawn) [Material in Example 16, 4′,5,7-tris-(2-ethylhexanoyloxy)-flavanone] | 41% | 59% |  |  |  |  |
| CCCCC(CC)C(=O)Oc1cccc(OC(=O)C(CC)CCCC)c1OC(=O)C(CC)CCCC (stereo not drawn) [Material in Example 10, 1,2,3-tris-(2-ethylhexanoyloxy)-benzene] | 38% | 65% |  |  |  |  |
| CCCC(=O)Oc1cccc(OC(=O)CCC)c1 [Material in Example 1, 1,3-bis-butyryloxy-benzene] | 43% | 68% |  |  |  |  |
| CCCCC(CC)C(=O)Oc1ccc(-c2coc3cc(OC(=O)C(CC)CCCC)cc(OC(=O)C(CC)CCCC)c3c2=O)cc1 (stereo not drawn) [Material in Example 12, 4′,5,7-tris-(2-ethylhexanoyloxy)-isoflavone] | 35% | 65% |  |  |  |  |
| CCCCC(=O)Oc1cccc(OC(=O)CCCC)c1 [Material in Example 2, 1,3-bis-pentanoyloxy-benzene] | 52% | 85% |  |  |  |  |
| CCCCC(CC)C(=O)Oc1cc(OC(=O)C(CC)CCCC)c2ccccc2c1 (stereo not drawn) [Material in Example 8, 1,3-bis-(2-ethylhexanoyloxy)-naphthalene] | 35% | 63% |  |  |  |  |
| CCCCC(CC)C(=O)Oc1ccc(C=Cc2cc(OC(=O)C(CC)CCCC)cc(OC(=O)C(CC)CCCC)c2)cc1 (stereo not drawn) [Material in Example 11, 3,4′,5-tris-(2-ethylhexanoyloxy)-stilbene] | 31% | 54% |  |  |  |  |
| CCCCC(CC)C(=O)Oc1cc(OC(=O)C(CC)CCCC)c2c(=O)c(OC(=O)C(CC)CCCC)c(-c3ccccc3)oc2c1 (stereo not drawn) [Material in Example 13, 3,5,7-tris-(2-ethylhexanoyloxy)-flavone] | 30% | 63% |  |  |  |  |
| CCCCCCCCCCCC(=O)Oc1cccc(OC(=O)CCCCCCCCCCC)c1 [Material in Example 7, 1,3-bis-lauroyloxy-benzene] | 21% | 43% |  |  |  |  |
| CCCCCCCCCC(=O)Oc1cccc(OC(=O)CCCCCCCCC)c1 [Material in Example 6, 1,3-bis-decanoyloxy-benzene] | 32% | 53% |  |  |  |  |
| CCCCC(CC)C(=O)Oc1ccc(-c2oc3cc(OC(=O)C(CC)CCCC)cc(OC(=O)C(CC)CCCC)c3c(=O)c2OC(=O)C(CC)CCCC)cc1 (stereo not drawn) [Material in Example 17, 3,5,7,4′-tetrakis-(2-ethylhexanoyloxy)-flavone] | 32% | 69% |  |  |  |  |
| CCCCC(CC)C(=O)Oc1cccc(OC(=O)C(CC)CCCC)c1 (stereo not drawn) [Material in Example 5, 1,3-bis-(2-ethyl-hexanoyloxy)-benzene] | 45% | 79% |  |  |  |  |
| CC(C)=CC(=O)Oc1cccc(OC(=O)C=C(C)C)c1 [Material in Example 3, 1,3-bis-(3-methyl-2-butenoyloxy)-benzene] | 53% | 83% |  |  |  |  |
| Oc1ccc(O)cc1 [Hydroquinone, hydroquinone, reference compound] |  |  | 52% | Apoptosis | strong effects of inhibiting melanin generation at a low concentration | serious cytotoxicity |
